Results published in US12193442B2, “Modulation of plant biology” (FBSCIENCES HOLDINGS, INC., priority 2012, dated 2025).

Columns and labels:
Type in all cases: in vivo
[1] = system: tomato plants (Lycopersicon es.); assay: Experiment Salt-2: foliar treatment of CPPA/salt formulations; conditions: ten and twenty day assessments averaged
Protocol: There were a total of 8 treatments plus an untreated check, with 20 replicates per treatment arranged in a randomized block design. Aqueous solutions of CPPA (1000 mg TOC/L) and salt (5000 mg/L) were used for this experiment and all plants were treated with a foliar application at the time they were transplanted into the pots. Each treatment contained CPPA alone, salt alone, or CPPA plus salt. Two rates of CPPA were used; the first was equivalent to 260 mg of TOC per hectare and a second equivalent to 1040 mg of TOC per hectare. […] All treatments were diluted with water to provide a final spray volume equivalent to 208 lit per hectare, applied with a spray bottle, with just enough spray solution to wet the leaf surface of each plant. Ten days after applications, ten each of the plant samples in each treatment were assessed for vigor, leaf number, plant height, plant weight, root weight, and shoot weight. Assessments were repeated at twenty days with the remaining ten plants of each treatment and the results were averaged. FIG. 17 depicts observed vigor, leaf number, plant height, plant weight, root weight, and shoot weight results for treatments to the tomato plants with 0 mg and 260 mg CPPA/ha application rate with variable salt application rates, which are also summarized in Table 4.

[2] = system: wheat seeds (Triticum aestivum); assay: Experiment Salt-3: soil treatments of CPPA/salt formulations; conditions: soil drench, 28 days after treatment
Protocol: For this experiment, wheat seeds (Triticum aestivum) were planted in small pots, approximately 1 inch in diameter and an inch in depth. There were a total of 8 treatments plus an untreated check, with 20 replicates per treatment arranged in a randomized block design. […] Treatments contained CPPA alone, salt alone, or CPPA plus salt. Two rates of CPPA were used; the first was equivalent to 520 mg of TOC per hectare and a second equivalent to 1040 mg of TOC per hectare. […] Twenty eight days after treatment the plants were assessed for plant weight, root weight, and shoot weight. FIG. 19 depicts plant weight, root weight, and shoot weight results for treatments with 520 mg CPPA/ha in combination with varying salt rates, which are summarized in Table 12.

[3] = system: tomato plants (Lycopersicon es.); assay: Experiment Salt-1: CPPA/NaCl composition, foliar application
Protocol: Experiment Salt-1: […] There were a total of 5 treatments plus an untreated check, each with 10 replicates per treatment arranged in a randomized block design. […] Each treatment comprised samples treated with CPPA alone, salt alone, or CPPA plus salt. Two rates of CPPA were used; the first was equivalent to 520 mg of TOC per hectare and a second equivalent to 1040 mg of TOC per hectare. Salt was applied at a rate equivalent to 2.6 g of salt per hectare. All treatments were diluted with water to provide a final spray volume equivalent to 208 lit per hectare, made with a spray bottle, with just enough spray solution to wet the leaf surface of each plant. Ten days after treatment the plants were assessed for vigor, leaf number, plant height, plant weight, root weight, shoot weight, and leaf conductance using a SPAD meter and are summarized in Table 8 and depicted in FIGS. 10-16.

[4] = system: tomato plants (Lycopersicon es.); assay: Experiment Fe-4: addition of low levels of iron to CPPA, foliar application; conditions: for Leaf # / Plt. Ht. / Plt. Wt. / Root Wt. / Shoot Wt. / Vigor: foliar
Description: Experiment Fe-4: The purpose of this experiment was to determine if the addition of low levels of iron to a CPPA sample containing lower than typical amounts of iron (e.g., Fe/TOC=0.135) would increase the biological response of plants. Nominal Fe/TOC ratios for CPPA range from 0.10 to 0.28 but the optimum ratio for “as-is” samples of CPPA, as determined in the previous experiments, is between 0.2 and 0.25. Thus, for this experiment, non-agrochemically effective amounts of iron were combined with CPPA samples. Tomato plants (Lycopersicon es.) were produced from seed and transplanted into 3 inch by 3 inch pots. There were 16 treatments plus an untreated check with 20 replicates per treatment arranged in a Randomized Complete Block design. Pots were treated with water (UTC), or CPPA only (3 different rates), Fe only (3 different rates), or CPPA and Fe at each of the rates. The CPPA rates corresponded to 260, 520, and 1040 mg organic carbon (TOC) per hectare and the Fe rates corresponded to 130, 260, and 520 mg Fe per hectare. All pots were treated by foliar application immediately after transplanting. Ten days after the application, ten of the plants were harvested and assessed for vigor, leaf number, plant height, plant weight, root weight, and shoot weight. […] Additional application rates of CPPA and Fe were evaluated with similar synergistic results observed for the combination of CPPA with amounts of iron. Twenty days after transplanting, the remaining ten plants in each treatment were assessed.

seeds = assay: Seed treatment observations with CPPA, iron-removed CPPA and Fe; conditions: treating seeds with Fe alone
Description: These observations support the premise that the combination of CPPA and Fe are synergistic in their interaction and biological effect on plants and/or seeds.

[5] = CP 1040 mg/ha and/or NaCl 1300 mg/ha
[6] = NaCl 2600 mg/ha alone or with CP 1040 mg/ha
[7] = CP 520 mg/ha and/or NaCl 1300 mg/ha
[8] = CP 1040 mg TOC/ha and/or NaCl 1300 mg/ha
[9] = NaCl 2600 mg/ha alone or with CP 520 mg/ha
[10] = NaCl 2600 mg/ha alone or with CP 1040 mg TOC/ha
[11] = CPPA 520 mg TOC/ha and/or NaCl 2600 mg/ha, ten days after treatment
[12] = CPPA 260 mg TOC/ha and/or Fe 130 mg Fe/ha (FeSO4), second assessment, 20 days after application
[13] = CPPA 520 mg TOC/ha and/or Fe 130 mg Fe/ha (FeSO4), 20 days after application
[14] = CPPA 1040 mg TOC/ha and/or Fe 520 mg Fe/ha (FeSO4), first assessment, 10 days after application
[15] = CPPA 1040 mg TOC/ha and/or Fe 520 mg Fe/ha (FeSO4), second assessment, 20 days after application

SMILES: [Cl-].[Na+] [NaCl]
- Leaf # [1, 5]: 4.7 de
- Plt. Ht. [1, 5]: 4.7 cd inches
- Plt. Wt. [1, 5]: 3.7 d grams
- Root Wt. [1, 5]: 1.4 cd grams
- Shoot Wt. [1, 5]: 2.3 e grams
- Vigor (1-5) [1, 5]: 2.9 de
- Leaf # [1, 6]: 4.1 f
- Plt. Ht. [1, 6]: 4.1 e inches
- Plt. Wt. [1, 6]: 3 de grams
- Root Wt. [1, 6]: 1.0 d grams
- Shoot Wt. [1, 6]: 2.0 ef grams
- Vigor (1-5) [1, 6]: 2.2 g
- Plt. Wt. [2, 7]: 2.1cd
- Root Wt. [2, 7]: 0.4bc
- Shoot Wt. [2, 7]: 1.8c
- Plt. Wt. [2, 8]: 2.1de
- Root Wt. [2, 8]: 0.4cd
- Shoot Wt. [2, 8]: 1.8 days
- Plt. Wt. [2, 9]: 2 days
- Root Wt. [2, 9]: 0.3cd
- Shoot Wt. [2, 9]: 1.7c
- Plt. Wt. [2, 10]: 2e
- Root Wt. [2, 10]: 0.3de
- Shoot Wt. [2, 10]: 1.7 days
- Leaf # [3, 11]: 5.3 e
- Plt. Ht. [3, 11]: 3.5 b
- Plt. Wt. [3, 11]: 2.7 c
- Root Wt. [3, 11]: 0.8jc
- SPAD (leaf conductance using a SPAD meter) [3, 11]: 24.2 b
- Shoot Wt. [3, 11]: 2.0 c
- Vigor [3, 11]: 2.4 b
- phytotoxicity of salt and its mitigation ([3]; Table 8, ten days): expected poorest results, indicating a significant amount of phytotoxicity

SMILES: O=S(=O)([O-])[O-].[Fe+2] [Fe, FeSO4]
- Leaf # [4, 12]: 6.3 ab
- Plt. Ht. [4, 12]: 6.4 abc
- Plt. Wt. [4, 12]: 6.4 c
- Root Wt. [4, 12]: 3.0 c
- Shoot Wt. [4, 12]: 3.4 cd
- Vigor [4, 12]: 2.1 c
- Leaf # [4, 13]: 6.3 ab
- Plt. Ht. [4, 13]: 6.4 ab
- Plt. Wt. [4, 13]: 6.4 b
- Root Wt. [4, 13]: 3.0 b
- Shoot Wt. [4, 13]: 3.4 ab
- Vigor [4, 13]: 2.1 c
- Leaf # [4, 14]: 6.6 ab
- Plt. Ht. [4, 14]: 4.2 b
- Plt. Wt. [4, 14]: 4.9 b
- Root Wt. [4, 14]: 1.4 bc
- Shoot Wt. [4, 14]: 3.6 b
- Vigor [4, 14]: 3.8 b
- Leaf # [4, 15]: 5.1 b
- Plt. Ht. [4, 15]: 6.3 b
- Plt. Wt. [4, 15]: 4.5 b
- Root Wt. [4, 15]: 1.6 bc
- Shoot Wt. [4, 15]: 2.9 cd
- Vigor [4, 15]: 2.5 c
- biological effect on plant, root and shoot weights relative to UTC ([4]; high application rate of CPPA alone or of Fe alone, FIG. 9F, Table 4): apparent slightly negative biological effect on the plant, root and shoot weights, although it was not statistically significant
- root development and shoot development (seeds): negative effect on root development and on shoot development
